From patent publication US8063053B2, “1-(arylsulfonyl)-4-(piperazin-1-yl)-1H-benzimidazoles as 5-hydroxytryptamine-6 ligands” (Wyeth LLC, priority 2008, dated 2011)

These molecules were tested against T1, serotonin 5-HT6 receptor subtype (Homo sapiens, UniProt P50406) (assay: 5-HT6 binding affinity ([3H]-LSD SPA binding)). Details: read-out: 5-HT6 binding Ki.
T1 construct: host or cells: CHO-Dukx-A2 cells, clone 50-7
T1 sequence (P50406 whole entry): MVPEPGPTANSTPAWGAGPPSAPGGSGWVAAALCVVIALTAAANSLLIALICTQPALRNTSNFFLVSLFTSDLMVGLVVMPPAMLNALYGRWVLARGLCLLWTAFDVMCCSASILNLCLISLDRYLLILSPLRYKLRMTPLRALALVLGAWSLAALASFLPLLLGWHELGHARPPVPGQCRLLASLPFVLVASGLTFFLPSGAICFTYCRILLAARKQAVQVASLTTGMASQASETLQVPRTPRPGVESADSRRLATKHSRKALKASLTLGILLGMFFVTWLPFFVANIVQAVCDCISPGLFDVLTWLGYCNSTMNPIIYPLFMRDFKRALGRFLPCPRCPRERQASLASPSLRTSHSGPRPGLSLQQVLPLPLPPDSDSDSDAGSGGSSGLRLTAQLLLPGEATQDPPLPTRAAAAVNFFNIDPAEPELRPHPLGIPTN

Ki	Compound
1.36 nM	O=S(=O)(c1cccc2c(Cl)cccc12)n1cnc2c(N3CCNCC3)cccc21 [Example 50, 1-[(5-chloro-1-naphthyl)sulfonyl]-4-piperazin-1-yl-1H-benzimidazole]
6.11 nM	CC(C)C1CN(c2cccc3c2ncn3S(=O)(=O)c2ccccc2)CCN1 (centres unmarked) [Example 120, 4-(3-isopropylpiperazin-1-yl)-1-(phenylsulfonyl)-1H-benzimidazole]
0.447 nM	CCc1nc2c(N3CCNCC3)cccc2n1S(=O)(=O)c1ccccc1 [Example 6, 2-ethyl-1-(phenylsulfonyl)-4-piperazin-1-yl-1H-benzimidazole]
6 nM	Cc1nc2c(N3CCNCC3)cccc2n1S(=O)(=O)c1ccc(Cl)cc1 [Example 17, 1-[(4-chlorophenyl)sulfonyl]-2-methyl-4-piperazin-1-yl-1H-benzimidazole]
1.32 nM	O=S(=O)(c1ccc(Cl)cc1)n1cnc2c(N3CCNCC3)cccc21 [Example 10, 1-[(4-chlorophenyl)sulfonyl]-4-piperazin-1-yl-1H-benzimidazole]
1.06 nM	O=S(=O)(c1ccccc1C(F)(F)F)n1cnc2c(N3CCNCC3)cccc21 [Example 41, 4-piperazin-1-yl-1-{[2-(trifluoromethyl)phenyl]sulfonyl}-1H-benzimidazole]
30.5 nM	Cc1nc2c(N3C[C@@H]4C[C@H]3CN4)cccc2n1S(=O)(=O)c1ccccc1 [Example 109, 4-[(1S,4S)-2,5-diazabicyclo[2.2.1]hept-2-yl]-2-methyl-1-(phenylsulfonyl)-1H-benzimidazole]
1.07 nM	Cc1nc2c(N3CCNC(C)C3)cccc2n1S(=O)(=O)c1cccc(F)c1 (centres unmarked) [Example 94, 1-[(3-fluorophenyl)sulfonyl]-2-methyl-4-(3-methylpiperazin-1-yl)-1H-benzimidazole]
0.202 nM	Cc1cccc(S(=O)(=O)n2cnc3c(N4CCNCC4)cccc32)c1F [Example 73, 1-[(2-fluoro-3-methylphenyl)sulfonyl]-4-piperazin-1-yl-1H-benzimidazole]
0.589 nM	O=S(=O)(c1cc(F)cc(Cl)c1)n1cnc2c(N3CCNCC3)cccc21 [Example 88, 1-[(3-chloro-5-fluorophenyl)sulfonyl]-4-piperazin-1-yl-1H-benzimidazole]
2.09 nM	CC1CN(c2cccc3c2ncn3S(=O)(=O)c2ccccc2OC(F)(F)F)CCN1 (centres unmarked) [Example 57, 4-(3-methylpiperazin-1-yl)-1-{[2-(trifluoromethoxy)phenyl]sulfonyl}-1H-benzimidazole]
0.982 nM	Cc1nc2c(N3CCNCC3)cccc2n1S(=O)(=O)c1cccc(C(F)(F)F)c1 [Example 49, 2-methyl-4-piperazin-1-yl-1-{[3-(trifluoromethyl)phenyl]sulfonyl}-1H-benzimidazole]
2.86 nM	Cc1c(Cl)cccc1S(=O)(=O)n1cnc2c(N3C[C@@H]4C[C@H]3CN4)cccc21 [Example 108, 1-[(3-chloro-2-methylphenyl)sulfonyl]-4-[(1S,4S)-2,5-diazabicyclo[2.2.1]hept-2-yl]-1H-benzimidazole]
1.38 nM	CCC1CN(c2cccc3c2ncn3S(=O)(=O)c2cccc3ccccc23)CCN1 (centres unmarked) [Example 118, 4-(3-ethylpiperazin-1-yl)-1-(1-naphthylsulfonyl)-1H-benzimidazole]
0.004 nM	Cc1nc2c(N3CCN(C)CC3)cccc2n1S(=O)(=O)c1cccc2ccccc12 [Example 9, 2-methyl-4-(4-methylpiperazin-1-yl)-1-(1-naphthylsulfonyl)-1H-benzimidazole]
1.11 nM	Cc1cccc(S(=O)(=O)n2cnc3c(N4CCNCC4)cccc32)c1 [Example 36, 1-[(3-methylphenyl)sulfonyl]-4-piperazin-1-yl-1H-benzimidazole]
1.66 nM	CN1CCN(c2cccc3c2ncn3S(=O)(=O)c2ccccc2)CC1 [Example 12, 4-(4-methylpiperazin-1-yl)-1-(phenylsulfonyl)-1H-benzimidazole]
0.761 nM	CCOc1ccccc1S(=O)(=O)n1c(C)nc2c(N3CCNCC3)cccc21 [Example 89, 1-[(2-ethoxyphenyl)sulfonyl]-2-methyl-4-piperazin-1-yl-1H-benzimidazole]
1.47 nM	CC(C)c1nc2c(N3CCNCC3)cccc2n1S(=O)(=O)c1cccc2c(Cl)cccc12 [Example 62, 1-[(5-chloronaphthalen-1-yl)sulfonyl]-2-(1-methylethyl)-4-piperazin-1-yl-1H-benzimidazole]
8.38 nM	Cc1nc2c(N3CCN[C@H](C)C3)cccc2n1S(=O)(=O)c1cccc2c(Cl)cccc12 [Example 127, 1-[(5-chloro-1-naphthyl)sulfonyl]-2-methyl-4-[(3R)-3-methylpiperazin-1-yl]-1H-benzimidazole]
1.1 nM	Cc1ccc(S(=O)(=O)n2cnc3c(N4CCNCC4)cccc32)c2ccccc12 [Example 35, 1-[(4-methyl-1-naphthyl)sulfonyl]-4-piperazin-1-yl-1H-benzimidazole]
21 nM	Cc1nc2c(N3C[C@@H]4C[C@H]3CN4)cccc2n1S(=O)(=O)c1ccccc1Cl [Example 111, 1-[(2-chlorophenyl)sulfonyl]-4-[(1S,4S)-2,5-diazabicyclo[2.2.1]hept-2-yl]-2-methyl-1H-benzimidazole]

Ki	Compound
1.92 nM	CC1CN(c2cccc3c2ncn3S(=O)(=O)c2cccc(Cl)c2)CCN1 (centres unmarked) [Example 54, 1-[(3-chlorophenyl)sulfonyl]-4-(3-methylpiperazin-1-yl)-1H-benzimidazole]
2.47 nM	Cc1cccc(S(=O)(=O)n2cnc3c(N4CCNC(C)C4)cccc32)c1 (centres unmarked) [Example 55, 1-[(3-methylphenyl)sulfonyl]-4-(3-methylpiperazin-1-yl)-1H-benzimidazole]
2.5 nM	Cc1ccc(S(=O)(=O)n2cnc3c(N4CCNCC4)cccc32)cc1 [Example 27, 1-[(4-methylphenyl)sulfonyl]-4-piperazin-1-yl-1H-benzimidazole]
2.13 nM	COc1ccc(OC)c(S(=O)(=O)n2cnc3c(N4CCNCC4)cccc32)c1 [Example 67, 1-[(2,5-dimethoxyphenyl)sulfonyl]-4-piperazin-1-yl-1H-benzimidazole]
6.27 nM	Cc1ccc(S(=O)(=O)n2c(C)nc3c(N4CCNCC4)cccc32)c2ccccc12 [Example 51, 2-methyl-1-[(4-methyl-1-naphthyl)sulfonyl]-4-piperazin-1-yl-1H-benzimidazole]
0.354 nM	C[C@H]1CN(c2cccc3c2ncn3S(=O)(=O)c2cccc3ccccc23)CCN1 [Example 81, 4-[(3S)-3-methylpiperazin-1-yl]-1-(naphthalen-1-ylsulfonyl)-1H-benzimidazole]
0.483 nM	C[C@H]1CN(c2cccc3c2ncn3S(=O)(=O)c2cccc(Cl)c2)CCN1 [Example 80, 1-[(3-chlorophenyl)sulfonyl]-4-[(3S)-3-methylpiperazin-1-yl]-1H-benzimidazole]
0.623 nM	Cc1nc2c(N3CCNC(C)C3)cccc2n1S(=O)(=O)c1cccc2ccccc12 (centres unmarked) [Example 92, 2-methyl-4-(3-methylpiperazin-1-yl)-1-(naphthalen-1-ylsulfonyl)-1H-benzimidazole]
0.025 nM	Cc1nc2c(N3CCNCC3)cccc2n1S(=O)(=O)c1cccc2ccccc12 [Example 4, 2-methyl-1-(1-naphthylsulfonyl)-4-piperazin-1-yl-1H-benzimidazole]
3.56 nM	COc1ccc(Cl)cc1S(=O)(=O)n1cnc2c(N3CCNCC3)cccc21 [Example 65, 1-[(5-chloro-2-methoxyphenyl)sulfonyl]-4-piperazin-1-yl-1H-benzimidazole]
1.12 nM	Cc1nc2c(N3CCNC(C)C3)cccc2n1S(=O)(=O)c1cccc2ccccc12 (stereo in doubt) [Example 115, 2-methyl-4-[(3R)-3-methylpiperazin-1-yl]-1-(1-naphthylsulfonyl)-1H-benzimidazole]
1.33 nM	O=S(=O)(c1cccc2ccccc12)n1cnc2c(N3CCNCC3)cc(F)cc21 [Example 101, 6-fluoro-1-(naphthalen-1-ylsulfonyl)-4-piperazin-1-yl-1H-benzimidazole]
3 nM	O=S(=O)(c1ccccc1F)n1cnc2c(N3CCNCC3)cccc21 [Example 21, 1-[(2-fluorophenyl)sulfonyl]-4-piperazin-1-yl-1H-benzimidazole]
0.305 nM	Cc1nc2c(N3CCNC(C)C3)cccc2n1S(=O)(=O)c1cccc2ccccc12 (stereo in doubt) [Example 117, 2-methyl-4-[(3S)-3-methylpiperazin-1-yl]-1-(1-naphthylsulfonyl)-1H-benzimidazole]
0.269 nM	O=S(=O)(c1ccccc1Cl)n1cnc2c(N3CCNCC3)cccc21 [Example 11, 1-[(2-chlorophenyl)sulfonyl]-4-piperazin-1-yl-1H-benzimidazole]
1.1 nM	CCCCc1nc2c(N3CCNCC3)cccc2n1S(=O)(=O)c1ccccc1 [Example 8, 2-butyl-1-(phenylsulfonyl)-4-piperazin-1-yl-1H-benzimidazole]
12.9 nM	COc1cc(C)c(Cl)cc1S(=O)(=O)n1cnc2c(N3CCNCC3)cccc21 [Example 90, 1-[(5-chloro-2-methoxy-4-methylphenyl)sulfonyl]-4-piperazin-1-yl-1H-benzimidazole]
1.33 nM	O=S(=O)(c1c(Cl)cccc1Cl)n1cnc2c(N3CCNCC3)cccc21 [Example 86, 1-[(2,6-dichlorophenyl)sulfonyl]-4-piperazin-1-yl-1H-benzimidazole]
1.82 nM	COc1ccc(S(=O)(=O)n2c(C)nc3c(N4CCNCC4)cccc32)cc1 [Example 13, 1-[(4-methoxyphenyl)sulfonyl]-2-methyl-4-piperazin-1-yl-1H-benzimidazole]
27.2 nM	Cc1nc2c(N3C[C@@H](C)N[C@@H](C)C3)cccc2n1S(=O)(=O)c1ccccc1 [Example 96, 4-[(3R,5S)-3,5-dimethylpiperazin-1-yl]-2-methyl-1-(phenylsulfonyl)-1H-benzimidazole]
13.7 nM	O=S(=O)(c1cc(C(F)(F)F)ccc1Cl)n1cnc2c(N3CCNCC3)cccc21 [Example 71, 1-{[2-chloro-5-(trifluoromethyl)phenyl]sulfonyl}-4-piperazin-1-yl-1H-benzimidazole]
18.9 nM	O=S(=O)(c1ccc(C(F)(F)F)cc1)n1cnc2c(N3CCNCC3)cccc21 [Example 40, 4-piperazin-1-yl-1-{[4-(trifluoromethyl)phenyl]sulfonyl}-1H-benzimidazole]
